Patent US10221197B2, “Phosphatidylinositol 3-kinase inhibitors” (Gilead Sciences, Inc., priority 2014, dated 2019)
pIC50: −log10 of the molar value.

Assays:
Format in all cases: biochemical
PI3Kβ = PI3Kβ (Homo sapiens (Human), UniProt P42338); assay: TR-FRET enzymatic assay of PI3K isoforms (PI3Kβ); conditions: TR-FRET, 2×Km ATP, 2 μM PIP2, incubated for 30 minutes at 25° C.; read-out: β IC50
Method: (§1) The compounds of formula (I) were characterized for their enzymatic activity against the PI3K isoforms. Certain compounds of the present application, including certain compounds of formula (II) and (III) were also characterized for their enzymatic activity against PI3K isoforms. The activities were measured using a time-resolved fluorescence resonance energy transfer (TR-FRET) assay.

PI3Kγ = PI3Kγ (Homo sapiens (Human), UniProt P48736); assay: TR-FRET enzymatic assay of PI3K isoforms (PI3Kγ); conditions: TR-FRET, 2×Km ATP, 2 μM PIP2, PI3Kγ at 2 nM, incubated for 30 minutes at 25° C.; read-out: γ IC50
Method: as §1

PI3Kδ = PI3Kδ (Homo sapiens (Human), UniProt O00329); assay: TR-FRET enzymatic assay of PI3K isoforms (PI3Kδ); conditions: 2×Km ATP, 2 μM PIP2, incubated for 30 minutes at 25° C., read-out: δ IC50
Method: as §1

PI3Kβ, sequence (P42338 whole entry, canonical isoform): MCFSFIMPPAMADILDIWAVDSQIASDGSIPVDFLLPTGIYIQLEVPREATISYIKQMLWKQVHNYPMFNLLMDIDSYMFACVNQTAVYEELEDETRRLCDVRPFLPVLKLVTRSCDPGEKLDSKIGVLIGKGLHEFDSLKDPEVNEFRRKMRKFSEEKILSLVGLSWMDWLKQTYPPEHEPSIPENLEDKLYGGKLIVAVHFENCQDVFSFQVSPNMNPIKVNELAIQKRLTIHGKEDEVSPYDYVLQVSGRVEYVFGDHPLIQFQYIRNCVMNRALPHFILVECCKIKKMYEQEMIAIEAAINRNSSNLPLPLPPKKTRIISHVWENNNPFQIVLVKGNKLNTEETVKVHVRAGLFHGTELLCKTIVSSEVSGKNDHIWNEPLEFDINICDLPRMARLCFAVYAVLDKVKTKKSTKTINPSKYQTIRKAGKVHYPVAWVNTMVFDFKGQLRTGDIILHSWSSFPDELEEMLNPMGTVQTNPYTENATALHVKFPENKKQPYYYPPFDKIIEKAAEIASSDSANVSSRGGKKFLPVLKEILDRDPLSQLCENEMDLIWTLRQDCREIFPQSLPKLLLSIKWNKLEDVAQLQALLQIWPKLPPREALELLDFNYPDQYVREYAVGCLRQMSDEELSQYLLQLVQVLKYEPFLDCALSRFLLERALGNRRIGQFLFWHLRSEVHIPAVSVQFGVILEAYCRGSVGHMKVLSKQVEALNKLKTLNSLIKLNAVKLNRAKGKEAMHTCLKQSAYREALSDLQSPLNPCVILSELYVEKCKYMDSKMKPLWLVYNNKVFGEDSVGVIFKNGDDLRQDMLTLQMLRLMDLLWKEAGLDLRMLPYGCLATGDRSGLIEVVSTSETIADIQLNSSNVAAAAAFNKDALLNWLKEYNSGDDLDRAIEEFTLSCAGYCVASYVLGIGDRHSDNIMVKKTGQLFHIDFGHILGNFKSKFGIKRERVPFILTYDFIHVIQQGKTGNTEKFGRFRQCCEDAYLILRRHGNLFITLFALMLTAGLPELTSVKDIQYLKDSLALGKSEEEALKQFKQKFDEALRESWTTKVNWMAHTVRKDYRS
PI3Kβ, sequence (P27986 whole entry partner, canonical isoform): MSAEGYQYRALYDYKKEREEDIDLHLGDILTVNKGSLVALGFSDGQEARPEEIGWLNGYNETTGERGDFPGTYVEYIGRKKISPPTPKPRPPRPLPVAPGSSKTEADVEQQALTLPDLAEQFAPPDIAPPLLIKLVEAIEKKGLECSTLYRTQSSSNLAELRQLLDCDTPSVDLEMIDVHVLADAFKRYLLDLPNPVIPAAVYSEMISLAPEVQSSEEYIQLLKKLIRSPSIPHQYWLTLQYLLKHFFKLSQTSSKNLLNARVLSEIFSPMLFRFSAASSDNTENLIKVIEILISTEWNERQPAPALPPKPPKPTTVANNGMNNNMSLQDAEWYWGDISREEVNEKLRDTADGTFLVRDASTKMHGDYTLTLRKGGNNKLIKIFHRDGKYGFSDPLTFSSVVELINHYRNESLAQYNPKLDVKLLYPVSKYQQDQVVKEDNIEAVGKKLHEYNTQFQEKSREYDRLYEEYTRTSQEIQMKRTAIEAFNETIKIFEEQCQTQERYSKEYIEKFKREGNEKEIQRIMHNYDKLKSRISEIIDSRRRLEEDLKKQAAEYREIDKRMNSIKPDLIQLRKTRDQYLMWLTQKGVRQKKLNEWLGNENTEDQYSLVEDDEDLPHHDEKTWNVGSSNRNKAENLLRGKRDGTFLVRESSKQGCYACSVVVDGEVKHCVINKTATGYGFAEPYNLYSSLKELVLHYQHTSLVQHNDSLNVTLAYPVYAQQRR
PI3Kδ, sequence (O00329 whole entry, canonical isoform): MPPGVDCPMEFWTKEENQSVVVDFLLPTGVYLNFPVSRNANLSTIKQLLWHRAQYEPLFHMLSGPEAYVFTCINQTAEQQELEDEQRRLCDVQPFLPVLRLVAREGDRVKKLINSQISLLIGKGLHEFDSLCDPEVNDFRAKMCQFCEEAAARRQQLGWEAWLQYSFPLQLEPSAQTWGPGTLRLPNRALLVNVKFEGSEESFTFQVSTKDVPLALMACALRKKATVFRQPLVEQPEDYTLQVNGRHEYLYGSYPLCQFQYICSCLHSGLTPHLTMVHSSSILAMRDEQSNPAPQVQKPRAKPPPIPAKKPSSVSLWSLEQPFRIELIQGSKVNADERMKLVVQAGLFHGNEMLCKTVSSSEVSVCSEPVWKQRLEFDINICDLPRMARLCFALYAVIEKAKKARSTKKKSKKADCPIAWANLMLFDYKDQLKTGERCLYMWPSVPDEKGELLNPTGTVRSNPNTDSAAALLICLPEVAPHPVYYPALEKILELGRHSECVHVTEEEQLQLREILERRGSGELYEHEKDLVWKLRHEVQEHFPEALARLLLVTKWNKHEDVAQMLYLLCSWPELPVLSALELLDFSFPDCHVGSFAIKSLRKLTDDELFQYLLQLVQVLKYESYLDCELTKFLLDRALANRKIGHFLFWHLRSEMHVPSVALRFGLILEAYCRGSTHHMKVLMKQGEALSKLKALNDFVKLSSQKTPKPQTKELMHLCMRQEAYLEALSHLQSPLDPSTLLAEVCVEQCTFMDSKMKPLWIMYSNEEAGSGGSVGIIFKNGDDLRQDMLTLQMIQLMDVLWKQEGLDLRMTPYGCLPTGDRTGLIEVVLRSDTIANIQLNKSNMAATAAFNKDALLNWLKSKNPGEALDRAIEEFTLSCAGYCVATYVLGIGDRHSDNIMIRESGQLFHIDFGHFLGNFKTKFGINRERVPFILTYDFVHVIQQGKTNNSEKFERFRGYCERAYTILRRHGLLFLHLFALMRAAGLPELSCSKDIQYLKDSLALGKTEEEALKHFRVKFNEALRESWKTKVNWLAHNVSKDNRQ
PI3Kδ, sequence (P27986 whole entry partner, canonical isoform): as the sequence (P27986 whole entry partner, canonical isoform) above
PI3Kγ, sequence (P48736 whole entry, canonical isoform): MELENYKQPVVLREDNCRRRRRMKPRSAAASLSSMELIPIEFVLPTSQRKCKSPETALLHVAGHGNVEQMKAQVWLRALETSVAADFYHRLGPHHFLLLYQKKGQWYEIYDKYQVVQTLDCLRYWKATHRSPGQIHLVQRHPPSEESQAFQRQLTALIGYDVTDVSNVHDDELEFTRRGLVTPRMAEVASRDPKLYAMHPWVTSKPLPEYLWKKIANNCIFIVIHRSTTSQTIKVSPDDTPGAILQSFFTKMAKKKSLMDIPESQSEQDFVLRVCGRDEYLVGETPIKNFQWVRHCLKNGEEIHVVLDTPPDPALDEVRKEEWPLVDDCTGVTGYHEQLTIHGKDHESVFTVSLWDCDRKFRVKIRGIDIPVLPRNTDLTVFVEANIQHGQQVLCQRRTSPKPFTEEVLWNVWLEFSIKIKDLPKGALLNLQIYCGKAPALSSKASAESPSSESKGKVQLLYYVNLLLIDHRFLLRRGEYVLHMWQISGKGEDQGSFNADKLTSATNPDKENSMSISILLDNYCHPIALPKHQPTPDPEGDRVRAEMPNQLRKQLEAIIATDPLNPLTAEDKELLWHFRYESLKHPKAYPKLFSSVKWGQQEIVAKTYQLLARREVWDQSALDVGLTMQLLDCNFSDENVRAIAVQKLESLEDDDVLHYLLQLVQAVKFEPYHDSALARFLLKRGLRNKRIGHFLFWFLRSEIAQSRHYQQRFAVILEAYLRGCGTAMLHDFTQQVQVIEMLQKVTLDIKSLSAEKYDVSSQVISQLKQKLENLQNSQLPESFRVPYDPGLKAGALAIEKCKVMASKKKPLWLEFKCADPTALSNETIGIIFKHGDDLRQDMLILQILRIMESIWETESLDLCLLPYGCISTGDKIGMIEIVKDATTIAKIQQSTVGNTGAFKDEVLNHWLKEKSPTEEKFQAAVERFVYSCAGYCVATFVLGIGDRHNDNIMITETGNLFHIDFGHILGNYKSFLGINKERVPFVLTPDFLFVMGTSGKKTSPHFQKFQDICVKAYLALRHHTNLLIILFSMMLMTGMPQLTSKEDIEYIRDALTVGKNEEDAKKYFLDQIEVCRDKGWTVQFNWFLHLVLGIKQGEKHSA
PI3Kγ, sequence (Q8WYR1 whole entry partner, canonical isoform): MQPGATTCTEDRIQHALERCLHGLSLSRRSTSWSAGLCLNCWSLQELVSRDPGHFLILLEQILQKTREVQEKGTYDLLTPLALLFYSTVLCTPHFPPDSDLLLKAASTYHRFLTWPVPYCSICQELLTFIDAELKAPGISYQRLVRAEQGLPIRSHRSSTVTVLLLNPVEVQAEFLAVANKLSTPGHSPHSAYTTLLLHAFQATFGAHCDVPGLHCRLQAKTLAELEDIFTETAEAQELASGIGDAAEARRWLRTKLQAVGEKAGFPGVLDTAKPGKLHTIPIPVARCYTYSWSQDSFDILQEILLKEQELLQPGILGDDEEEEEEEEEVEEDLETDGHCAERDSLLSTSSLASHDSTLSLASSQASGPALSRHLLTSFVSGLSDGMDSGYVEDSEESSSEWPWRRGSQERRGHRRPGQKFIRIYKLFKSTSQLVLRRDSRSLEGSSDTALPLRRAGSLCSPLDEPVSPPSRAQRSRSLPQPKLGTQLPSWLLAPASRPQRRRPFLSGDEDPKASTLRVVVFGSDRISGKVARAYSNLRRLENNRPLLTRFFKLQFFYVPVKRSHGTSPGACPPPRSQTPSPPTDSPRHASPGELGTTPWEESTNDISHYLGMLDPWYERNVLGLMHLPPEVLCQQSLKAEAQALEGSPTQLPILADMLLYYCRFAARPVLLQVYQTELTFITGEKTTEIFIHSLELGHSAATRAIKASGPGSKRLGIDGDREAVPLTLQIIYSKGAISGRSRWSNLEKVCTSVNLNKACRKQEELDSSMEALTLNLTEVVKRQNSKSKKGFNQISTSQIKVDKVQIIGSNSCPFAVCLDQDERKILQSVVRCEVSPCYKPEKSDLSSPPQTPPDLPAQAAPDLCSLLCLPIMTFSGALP

| Structure (SMILES) | pIC50 (PI3Kβ) | pIC50 (PI3Kγ) | pIC50 (PI3Kδ) |
| --- | --- | --- | --- |
| C[C@H](Nc1nc(N)nc(N)c1C#N)c1nc2c(C#N)cc(F)cc2c(=O)n1-c1cccc(C(N)=O)c1 [Compound 31, (S)-3-(8-cyano-2-(1-((2,6-diamino-5-cyanopyrimidin-4-yl)amino)ethyl)-6-fluoro-4-oxoquinazolin-3(4H)-yl)benzamide] | 7.68 | 5.96 | 8.70 |
| C[C@H](Nc1ncnc(N)c1C#N)c1nc2cccc(F)c2c(=O)n1-c1cccc(NC(=O)Nc2ccccc2C(F)(F)F)c1 [Compound 110, (S)-1-(3-(2-(1-((6-amino-5-cyanopyrimidin-4-yl)amino)ethyl)-5-fluoro-4-oxoquinazolin-3(4H)-yl)phenyl)-3-(2-(trifluoromethyl)phenyl)urea] | 7.80 | < 5.00 | 7.24 |
| C[C@H](Nc1nc(N)nc(C(F)F)c1C#N)c1nc2cccc(Cl)c2c(=O)n1-c1cccc(C(N)=O)c1 [Compound 25, (S)-3-(2-(1-((2-amino-5-cyano-6-(difluoromethyl)pyrimidin-4-yl)amino)ethyl)-5-chloro-4-oxoquinazolin-3(4H)-yl)benzamide] | 7.62 | 6.15 | 9.00 |
| CC(C)NC(=O)Nc1cccc(-n2c([C@H](C)Nc3ncnc(N)c3C#N)nc3cccc(Cl)c3c2=O)c1 [Compound 120, (S)-1-(3-(2-(1-((6-amino-5-cyanopyrimidin-4-yl)amino)ethyl)-5-chloro-4-oxoquinazolin-3(4H)-yl)phenyl)-3-isopropylurea] | 8.05 | 5.32 | 8.15 |
| N#Cc1c(N)nc(N)nc1N[C@H](c1nc2c(C#N)cc(F)cc2c(=O)n1-c1cccc(C(N)=O)c1)C1CC1 [Compound 32, (S)-3-(8-cyano-2-(cyclopropyl((2,6-diamino-5-cyanopyrimidin-4-yl)amino)methyl)-6-fluoro-4-oxoquinazolin-3(4H)-yl)benzamide] | 7.60 | 5.74 | 8.40 |
| NC(=O)c1cccc(-n2c([C@@H](Nc3nc(N)nc(N)c3Cl)C3CC3)nc3c(F)ccc(Cl)c3c2=O)c1 [Compound 16, (S)-3-(5-chloro-2-(cyclopropyl((2,6-diamino-5-chloropyrimidin-4-yl)amino)methyl)-8-fluoro-4-oxoquinazolin-3(4H)-yl)benzamide] | 7.77 | 5.49 | 8.70 |
| C[C@H](Nc1ncnc2[nH]cnc12)c1nc2cccc(Cl)c2c(=O)n1-c1cccc(NC(N)=O)c1 [Compound 86, (S)-1-(3-(2-(1-((9H-purin-6-yl)amino)ethyl)-5-chloro-4-oxoquinazolin-3(4H)-yl)phenyl)urea] | 7.66 | 5.37 | 7.72 |
| CCNC(=O)Nc1cccc(-n2c([C@H](C)Nc3ncnc(N)c3C#N)nc3cccc(Cl)c3c2=O)c1Cl (single isomer, unassigned) [Compound 95] | 7.23 | 6.00 | 8.30 |
| C[C@H](Oc1ncnc2scnc12)c1nc2cccc(Cl)c2c(=O)n1-c1cccc(NC(=O)NCCO)c1 [Compound 158, (S)-1-(3-(5-chloro-4-oxo-2-(1-(thiazolo[5,4-d]pyrimidin-7-yloxy)ethyl)quinazolin-3(4H)-yl)phenyl)-3-(2-hydroxyethyl)urea] | 8.05 | 6.05 | 8.40 |
| CCCNC(=O)Nc1cccc(-n2c([C@H](C)Nc3ncnc(N)c3C#N)nc3cccc(Cl)c3c2=O)c1 [Compound 126, (S)-1-(3-(2-(1-((6-amino-5-cyanopyrimidin-4-yl)amino)ethyl)-5-chloro-4-oxoquinazolin-3(4H)-yl)phenyl)-3-propylurea] | 8.10 | 5.54 | 8.40 |
| C[C@H](Nc1nc(N)nc(N)c1Cl)c1nc2c(Cl)cc(F)cc2c(=O)n1-c1cccc(C(N)=O)c1 [Compound 30, (S)-3-(8-chloro-2-(1-((2,6-diamino-5-chloropyrimidin-4-yl)amino)ethyl)-6-fluoro-4-oxoquinazolin-3(4H)-yl)benzamide] | 6.60 | < 5.00 | 7.66 |
| C[C@H](Oc1ncnc2scnc12)c1nc2cccc(Cl)c2c(=O)n1-c1cccc(NC(=O)NC2CCCC2)c1 [Compound 146, (S)-1-(3-(5-chloro-4-oxo-2-(1-(thiazolo[5,4-d]pyrimidin-7-yloxy)ethyl)quinazolin-3(4H)-yl)phenyl)-3-cyclopentylurea] | 7.24 | 5.66 | 8.22 |
| CCNC(=O)Nc1cc(-n2c([C@H](C)Nc3ncnc(N)c3C#N)nc3cccc(Cl)c3c2=O)ccc1F [Compound 78, (S)-1-(5-(2-(1-((6-amino-5-cyanopyrimidin-4-yl)amino)ethyl)-5-chloro-4-oxoquinazolin-3(4H)-yl)-2-fluorophenyl)-3-ethylurea] | 7.80 | 5.31 | 7.49 |
| C[C@H](Nc1ncnc(N)c1C#N)c1nc2cccc(Cl)c2c(=O)n1-c1cccc(NC(=O)Nc2ccccc2C(=O)O)c1 [Compound 96, (S)-2-(3-(3-(2-(1-((6-amino-5-cyanopyrimidin-4-yl)amino)ethyl)-5-chloro-4-oxoquinazolin-3(4H)-yl)phenyl)ureido)benzoic acid] | 6.64 | 5.59 | 8.30 |
| CCNC(=O)Nc1ccc(C)c(-n2c([C@H](C)Nc3ncnc(N)c3C#N)nc3cccc(Cl)c3c2=O)c1 (atropisomer, axis not shown) [Compound 60, (S)-1-(3-(2-(1-((6-amino-5-cyanopyrimidin-4-yl)amino)ethyl)-5-chloro-4-oxoquinazolin-3(4H)-yl)-4-methylphenyl)-3-ethylurea] | 6.68 | 6.68 | 8.40 |
| C[C@H](Nc1ncnc2scnc12)c1nc2cccc(Cl)c2c(=O)n1-c1cccc(NC(=O)NS(=O)(=O)C2CCCC2)c1 [Compound 80, (S)—N-((3-(5-chloro-4-oxo-2-(1-(thiazolo[5,4-d]pyrimidin-7-ylamino)ethyl)quinazolin-3(4H)-yl)phenyl)carbamoyl)cyclopentanesulfonamide] | 6.92 | 6.60 | 9.05 |

Further lines, results first:

| pIC50 (PI3Kβ) | pIC50 (PI3Kγ) | pIC50 (PI3Kδ) | Structure (SMILES) |
| --- | --- | --- | --- |
| 8.10 | 5.80 | 7.72 | C[C@H](Nc1ncnc(N)c1C#N)c1nc2cccc(Cl)c2c(=O)n1-c1cccc(NC(=O)Nc2ccc(Cl)c(C(F)(F)F)c2)c1 [Compound 99, (S)-1-(3-(2-(1-((6-amino-5-cyanopyrimidin-4-yl)amino)ethyl)-5-chloro-4-oxoquinazolin-3(4H)-yl)phenyl)-3-(4-chloro-3-(trifluoromethyl)phenyl)urea] |
| 8.15 | < 5.00 | 8.52 | CCNC(=O)Nc1cccc(-n2c([C@H](C)Nc3ncnc(N)c3C#N)nc3c(Cl)ccc(Cl)c3c2=O)c1 [Compound 48, (S)-1-(3-(2-(1-((6-amino-5-cyanopyrimidin-4-yl)amino)ethyl)-5,8-dichloro-4-oxoquinazolin-3(4H)-yl)phenyl)-3-ethylurea] |
| 8.70 | 6.70 | 9.40 | CC[C@H](Nc1nc(N)nc(N)c1C#N)c1nc2cccc(Cl)c2c(=O)n1-c1cccc(C(N)=O)c1 [Compound 8, (S)-3-(5-chloro-2-(1-((2,6-diamino-5-cyanopyrimidin-4-yl)amino)propyl)-4-oxoquinazolin-3(4H)-yl)benzamide] |
| 8.10 | 5.74 | 8.30 | C[C@H](Oc1ncnc2scnc12)c1nc2cccc(Cl)c2c(=O)n1-c1cccc(NC(=O)NCC(F)F)c1 [Compound 148, (S)-1-(3-(5-chloro-4-oxo-2-(1-(thiazolo[5,4-d]pyrimidin-7-yloxy)ethyl)quinazolin-3(4H)-yl)phenyl)-3-(2,2-difluoroethyl)urea] |
| 8.22 | 5.80 | 8.22 | C[C@H](Nc1ncnc(N)c1C#N)c1nc2cccc(Cl)c2c(=O)n1-c1cccc(NC(=O)NCC(C)(C)CO)c1 [Compound 141, (S)-1-(3-(2-(1-((6-amino-5-cyanopyrimidin-4-yl)amino)ethyl)-5-chloro-4-oxoquinazolin-3(4H)-yl)phenyl)-3-(3-hydroxy-2,2-dimethylpropyl)urea] |
| 8.70 | 7.15 | 9.00 | N#Cc1c(N)nc(N)nc1N[C@H](c1nc2cccc(Cl)c2c(=O)n1-c1cc(F)cc(C(N)=O)c1)C1CC1 [Compound 161, (S)-3-(5-chloro-2-(cyclopropyl((2,6-diamino-5-cyanopyrimidin-4-yl)amino)methyl)-4-oxoquinazolin-3(4H)-yl)-5-fluorobenzamide] |
| 8.22 | 7.22 | 9.30 | C[C@H](Nc1nc(N)nc(N)c1C#N)c1nc2cccc(Cl)c2c(=O)n1-c1cccc(C(N)=O)c1 [Compound 2, (S)-3-(5-chloro-2-(1-((2,6-diamino-5-cyanopyrimidin-4-yl)amino)ethyl)-4-oxoquinazolin-3(4H)-yl)benzamide] |
| 8.52 | 5.80 | 8.52 | C[C@H](Nc1ncnc(N)c1C#N)c1nc2cccc(Cl)c2c(=O)n1-c1cccc(NC(=O)NC2CCCC2)c1 [Compound 121, (S)-1-(3-(2-(1-((6-amino-5-cyanopyrimidin-4-yl)amino)ethyl)-5-chloro-4-oxoquinazolin-3(4H)-yl)phenyl)-3-cyclopentylurea] |
| 8.30 | 5.36 | 8.15 | C[C@H](Nc1ncnc(N)c1C#N)c1nc2cccc(Cl)c2c(=O)n1-c1cccc(NC(=O)NCC(F)(F)F)c1 [Compound 76, (S)-1-(3-(2-(1-((6-amino-5-cyanopyrimidin-4-yl)amino)ethyl)-5-chloro-4-oxoquinazolin-3(4H)-yl)phenyl)-3-(2,2,2-trifluoroethyl)urea] |
